According to paper PMC6433934, “Preclinical Evaluation of Bispecific Adaptor Molecule Controlled Folate Receptor CAR-T Cell Therapy With Special Focus on Pediatric Malignancies” (Frontiers in Oncology, 2019):

What was measured:
KB = assay: EC17 dose response, co-culture with E2-CAR-T cells, LDH specific lysis; type: cell-based, human; details: E/T 1:1, 24 h co-culture
Description: (§1) To investigate EC17 CAM action in vitro, pure EGFRt-sorted CD4 and CD8 CAR-T cells were admixed in a 1:1 ratio and matching mock-transduced T cells were included per experimental design. Other than FR+/- isogenic pairs of AML and osteosarcoma cell lines, we added KB, MDA-MB-231 and OV90 to represent different histological tumor types and FR expression levels. All FR+ target cell lines were subjected to a direct ^3H-FA binding assay to quantitate the number of FR molecules bound/cell ([38]). Prior to co-culture experiments, cryopreserved CAR-T cells were allowed to recover for 2–3 days in T cell culture medium. All effector and target cells were pre-washed with FFRPMI to remove any exogenous FA that could compete against EC17. Short-term co-culture studies of ≤ 3 days were carried out in FFRPMI without adding any exogenous cytokines.
(§2) For an EC17 dose response study, FR+ cancer cell lines (KB, MDA-MB-231, HOS-FRα, THP1-FRβ, OV90) were co-cultured with EGFRt-sorted E2-CAR-T cells at an effector-to-target (E/T) ratio of 1:1 in the presence of EC17 ranging from 0.1 pM to 100 μM in 10-fold increments. After 24 h of co-culture, supernatants were harvested to determine target cell killing by Promega's CytoTox 96® LDH assay kit and expressed as specific lysis (%) normalized to basal levels in the absence of EC17. To study the kinetics of T cell activation and FR correlation in vitro, co-cultures were carried out in FR+/- cell lines at varying E/T ratios (1:27, 1:9, 1:3, 1:1, 3:1) in the continuous presence of 10 nM EC17. The kinetics of target cell killing (i.e., % specific lysis) were quantified after 16 and 48 h of co-culture and normalized to basal levels in the absence of EC17 at defined E/T ratios. Meanwhile, a portion of the supernatants was taken after 44 h of co-culture for measurement of IFNγ, IL-2, and TNFα. The LEGENDplex™ human Th1 cytokine panel (BioLegend, San Diego, CA) was used to determine CAR-T cell derived cytokines.

MDA-MB-231 = assay: as above; type: cell-based, human; details: MDA-MB-231, E/T 1:1, 24 h co-culture
Description: as §1, §2

[1] = EC17 dose finding safety study, tumor-free mice; type: in vivo; parameters: key to CRS grade: 0: normal (no CRS); 1: mild; 2: light-to-moderate; 3–4: severe CRS; 5: death (due to severe CRS); details: ~10 million E2-CAR-T cells
Description: For MDA-MB-231 studies, mice received a high dose (~10 million) of a “clinical facsimile” of E2-CAR-T cells (~39% EGFRt+) with a low differentiation profile. Two days later, we started them with 3 different treatment regimens of EC17 at an average tumor size of ~293 ± 39 mm^3. The EC17 dosing was given once-a-week (SIW) at 500 nmol/kg on Mondays, or as escalating doses of 5, 50, or 100, and 500 or 1,000 nmol/kg on Monday, Thursday, and Monday with a 6 day break in-between cycles. Control mice were left untreated (received CAR-T cells but no EC17). For comparison, a cohort of tumor-free littermates also received the same number of CAR-T cells without or with EC17 SIW at 500 nmol/kg. To study the effect of high dietary folate, two sets of NSG mice were placed on either a FA-replete diet (4 mg/kg, Envigo, Indianapolis, IN) or a FA-deficient diet (TestDiet, St. Louis, MO) upon arrival. […]
Depending on the CAR-T cell dose and how EC17 is administered, tumor-bearing mice receiving FITC-specific CAR-T cells can experience severe CRS and varying degrees of body weight loss ([27], [33], [34]). […] On the days immediately following each EC17 dose, animals were scored and rescue agents such as sodium fluorescein, folic acid and leucovorin were used to mitigate CRS toxicity ([33]). […]

MDA-MB-231 tumors = assay: Effect of dietary folate on CRS and antitumor activity; type: in vivo, NSG mice
Experimental: All animal care and use were performed according to NIH guidelines and in compliance with protocols approved by the Purdue University Animal Use and Care Committee. Female 4 to 5-weeks-old NOD/SCID gamma (NSG™) mice (stock number: 005557) were purchased from The Jackson Laboratory (Bar Harbor, ME). Unless specifically indicated, all animals were maintained on a FA-deficient diet (TestDiet, St. Louis, MO) upon arrival and throughout the study. To establish subcutaneous xenografts, MDA-MB-231 and HOS-FRα were implanted in the right flank region at 2.5 × 10^6 and 1 × 10^6 cells per animal, respectively. For intravenous xenografts, THP1-FRβ cells were inoculated at 5 × 10^6 cells per animal. Subcutaneous tumors were measured 2–3 times per week with a caliper and calculated using the ellipsoidal formula (length x width^2)/2. […] All animal doses (CAR-T cells, EC17, sodium fluorescein) were given intravenously.
For MDA-MB-231 studies, mice received a high dose (~10 million) of a “clinical facsimile” of E2-CAR-T cells (~39% EGFRt+) with a low differentiation profile. Two days later, we started them with 3 different treatment regimens of EC17 at an average tumor size of ~293 ± 39 mm^3. The EC17 dosing was given once-a-week (SIW) at 500 nmol/kg on Mondays, or as escalating doses of 5, 50, or 100, and 500 or 1,000 nmol/kg on Monday, Thursday, and Monday with a 6 day break in-between cycles. Control mice were left untreated (received CAR-T cells but no EC17). For comparison, a cohort of tumor-free littermates also received the same number of CAR-T cells without or with EC17 SIW at 500 nmol/kg. To study the effect of high dietary folate, two sets of NSG mice were placed on either a FA-replete diet (4 mg/kg, Envigo, Indianapolis, IN) or a FA-deficient diet (TestDiet, St. Louis, MO) upon arrival. On day 0, both sets of the mice received ~10 million of the same “clinical facsimile” CAR-T cells followed by no EC17 or EC17 SIW at 500 nmol/kg starting on day 3. On the first day of EC17 administration, MDA-MB-231 tumors size averaged around ~549 ± 184 mm^3 (280–918 mm^3) in FA-replete mice, and ~559 ± 165 mm^3 (356–961 mm^3) in FA-deficient mice.
Depending on the CAR-T cell dose and how EC17 is administered, tumor-bearing mice receiving FITC-specific CAR-T cells can experience severe CRS and varying degrees of body weight loss ([27], [33], [34]). Therefore, we developed a CRS grading system (0–5 scale) to empirically assess CRS toxicity from animals' gross morphology and social behavior to allow for better timing of CRS rescue. While grades 0 and 5 indicated normal (no CRS) or death (due to severe CRS), respectively, grades 1, 2, and 3–4 were considered mild, light-to-moderate, and severe CRS. In addition, all EC17 doses were intentionally given toward the end of any given day to allow potential CRS symptoms to develop overnight. On the days immediately following each EC17 dose, animals were scored and rescue agents such as sodium fluorescein, folic acid and leucovorin were used to mitigate CRS toxicity ([33]). In this particular instance, a batch of E2-CAR-T cells with a high EGFRt+ CD4/CD8 ratio (~93:7) was given to HOS-FRα tumor-bearing mice at a mixture of ~2.5 million CD8 and ~33 million CD4 on day 0. When EC17 was dosed, respectively, at 500, 100, and 500 nmol/kg on days 3, 10, and 12, low CRS (grades 1–2) was noted on days 4 and 11 but high CRS (grade 3) was noted on day 13. To mitigate the severe CRS toxicity, sodium fluorescein was intravenously administrated at ~96 mg/kg in the morning of day 13 and mouse plasma samples were collected 6 h later for analysis of CRS-associated cytokines.

[2] = Homo sapiens, curve fitted up to 100 nM
[3] = FA-deficient diet, ~10 million E2-CAR-T cells, subsequent EC17 doses SIW 500 nmol/kg
[4] = FA-replete diet, EC17 SIW 500 nmol/kg, ~10 million E2-CAR-T cells, n = 5

Question: With Nc1nc2ncc(CNc3ccc(C(=O)NC(CCC(=O)NCCNC(=S)Nc4ccc(-c5c6ccc(=O)cc-6oc6cc(O)ccc56)c(C(=O)O)c4)C(=O)O)cc3)nc2c(=O)[nH]1 (stereo not drawn) [EC17, FA-(γ)-ethylenediamine-FITC] as the molecule, how does the Max. lysis (KB) read?
Answer: 11%

Question: And the EC50 (KB; [2])?
Answer: 5.3 pM

Question: And the EC50 (MDA-MB-231; [2])?
Answer: 4.5 pM

Question: And the Max. lysis (MDA-MB-231)?
Answer: 45%

Question: And the CRS grade ([1]; 2 weekly doses EC17 500 nmol/kg, 0–5 scale)?
Answer: 0

Question: What about the “CAR-T cell expansion by flow cytometry” value ([1]; EC17 SIW 500 nmol/kg) of the same molecule?
Answer: no CAR-T cell expansion was detected

Question: What about the cures (MDA-MB-231 tumors; FA-deficient diet, EC17 SIW 500 nmol/kg, ~10 million E2-CAR-T cells, n = 5) of the same molecule?
Answer: 5/5

Question: What about the “CD3ε+ EGFRt+ CAR-T cells in blood” value (MDA-MB-231 tumors; FA-deficient diet, day 52, EC17 SIW 500 nmol/kg) of the same molecule?
Answer: 1.6–20.4 × 10^4 per 100 μL blood

Question: What about the CRS grade (MDA-MB-231 tumors; [3]) of the same molecule?
Answer: 2–3

Question: And the body weight loss (MDA-MB-231 tumors; [3])?
Answer: ≤ 11.4%

Question: What about the complete responses (MDA-MB-231 tumors; [4]) of the same molecule?
Answer: 2/5

Question: And the cures (MDA-MB-231 tumors; [4])?
Answer: 2/5

Question: And the partial response (MDA-MB-231 tumors; [4])?
Answer: 1/5

Question: What about the “CD3ε+ EGFRt+ CAR-T cells in blood” value (MDA-MB-231 tumors; FA-replete diet, day 59, EC17 SIW 500 nmol/kg) of the same molecule?
Answer: 0.027–4.3 × 10^3 per 100 μL blood

Question: And the CRS symptoms (MDA-MB-231 tumors; FA-replete diet, ~10 million E2-CAR-T cells, EC17 SIW 500 nmol/kg)?
Answer: did not show symptoms of CRS
